Experimental data reported in US6562837B1, “Use of tetrahydroisoquinoline compounds for the treatment of septicemia” (Korea Institute of Science & Technology, priority 1998, dated 2003).

Experiments:
α-receptor = assay: Binding affinity to α-adrenoceptor, [3H]prazosin, rat cerebral cortical membrane; settings: [3H]prazosin 200 pM, 25° C., 30 min, read-out: Dissociation constant Ki (M) for cerebral α-receptor of rat
Method: For this, the cerebral cortex obtained from rats (Sprague-Dawley, 250±20 g; unless particularly mentioned, the same rats were used in the following experiments) was homogeneously mixed with a 20× buffer (50 mM Tris, 5 mM MgSO4, 1 mM EDTA, 1 mM ascorbic acid, pH 7.7) and then, centrifuged three times at 35,000×g for 15 min and the pellet was stored at −70° C. A solution of 5 mg of the pellet in 1 ml of the buffer was incubated, along with [^3H]prazosin (200 pM) and samples, at 25° C. for 30 min followed by adding 10 ml of a buffer (50 mM Tris, pH 7.7) to quench the binding reaction. The resulting solution was filtered through a Whatman GF/C glass microfiber filter which was then shaken for 2 hours while being completely submerged in a scintillation cocktail. The radioactivity was measured using a scintillation counter (Beckman, LS6500)

Rat thoracic aorta = assay: Relaxation of phenylephrine-contracted isolated rat thoracic aorta; type: cell-based
LPS-induced DIC and MOF = assay: Indices for bacterial endotoxin (LPS)-induced DIC and MOF in rats; type: in vivo; settings: 10 mg/kg and 50 mg/kg orally, vs control given LPS (20 mg/kg) only; for number of platelets in blood: FIG. 3; for prothrombin time (PT): FIG. 4; for activated partial thromboplastin time (aPTT): FIG. 5; for fibrinogen level in blood: FIG. 6; for FDP level in blood: FIG. 7; for S-GOT level in blood: FIG. 8; for S-GPT level in blood: FIG. 9; for BUN level in blood: FIG. 10
Method: Rats (Sprague-Dawley, 250±50 g) were anesthetized with ketamine (250 mg/kg) by injection (i.m.). 30 min later, LPS (20 mg/kg) was infused into the tail vein of the rats over a 3 hour period. Thereafter, blood was harvested from the artery and measured for platelet number, PT, aPTT, fibrinogen level, FDP level, and the levels of S-GOT, S-GPT and BUN. Test drugs were orally administered once a day for two days. One hour after the final administration of the compounds of interest, the rats were anesthetized.
As an anticoagulant, sodium citrate was used. The number of platelets in the blood was measured by use of a platelet counter. Anticoagulant-treated blood was centrifuged at 1,500×g for 10 min and the plasma was obtained for testing.
In order to obtain a prothrombin time (PT), 100 μl of the plasma was added with 50 μl of a thromboplastin reagent (Sigma, U.S.A.) and a clotting time was measured by use of a fibrometer (Becton Dickinson Co., Canada). Before mixing, the plasma and thromboplastin reagent were pre-incubated at 37° C. for 3 min and 5 min, respectively.
For measurement of the aPTT, 100 μl of the plasma was incubated at 37° C. for 3 min and added with 100 μl of an activated partial thromboplastin time reagent (Sigma U.S.A.) and 100 μl of 0.02 M CaCl2 and a clotting time was measured by use of a fibrometer. Before addition, the reagent was pre-incubated at 37° C. for 1 min while CaCl2 was pre-warmed at 37° C.
To determine the fibrinogen level, first, 20 μl of the plasma was mixed with 180 μl of a buffer and incubated at 37° C. for 2 min. To this solution was added 100 μl of a thrombin reagent (Sigma U.S.A.), followed by measuring a clotting time. Then, the fibrinogen level was determined from a calibration curve obtained with a fibrinogen reference.
The FDP level was determined by use of the Thrombo-Wellcotest kit (Murex Biotech Limit, British). To this end, first, each blood sample (non-citrated) was mixed well with a soybean trypsin inhibitor and Bothrops atrox venom and incubated at 37° C. for 30 min. After centrifugation at 1,500×g for 10 min twice, the supernatant serum was diluted with a glycine saline buffer. 50 μl of the diluted serum was mixed with a drop of a latex suspension on a test slide glass and spread uniformly. The slide was placed in a shaker for 2 min and observed for agglutination. The concentration of FDP was determined semi-quantitatively as follows: with 1:0 dilution (−):0 μg/ml, (+):1 μg/ml, (++):2 μg/ml; with 1:1 dilution, (+):3 μg/ml, (++) :4 μg/ml; with 1:2 dilution (+):5 μg/ml, (++):6 μg/ml, etc.
For the assay of S-GOT, S-GPT and BUN, diagnostic kits (Boehringer Mannheim; AST kit for S-GOT, ALT kit for S-GPT, and urea kit for BUN) were used, together with an automatic biochemical analyzer (Hitachi 747), with the help of Green Cross Reference Lab., Korea.
In detail, after oral administration of higenamine or the compounds of Chemical Formulas 1 and 2, LPS (20 mg/kg) was injected into rats over a 3 hour period to cause DIC and MOF. In order to examine the improvement in the indices for DIC and MOF, these test animals were compared with a control which was provided with LPS only.

[1] = tested on: NO synthesis in macrophages (RAW 264.7 cells); assay: Suppression of LPS- and IFN-γ-induced NO synthesis in macrophage (nitrite, Griess reagent); type: cell-based; settings: 18 hours, control 8, LPS + IFN-γ alone 57
Method: In a DMEM medium supplemented with thermally treated 10% fetal calf serum, penicillin (100 U/ml) and streptomycin ([…]), macrophages (RAW 264.7 cells) were cultured to be confluent in a CO2 incubator. After being transferred to a serum-free DMEM medium, the cells were cultured for additional 24 hours and then, further for 18 hours in the presence of LPS (100 ng/ml) and IFN-γ, and either of the compounds of Chemical Formulas 1 and 2 (0, 1, 10, and 100:μM). The amount of the NO synthesized was measured indirectly through the amount of nitrite, an oxidation product of NO. To this end, the nitrite was subjected to color reaction with the Griess reagent (0.1% naphthylethylenediamine dihydrochloride, 1% sulphanilamide, 5% phosphate solution) and its absorbance at 550 nm was measured by a spectrophotometer.

[2] = Toxicity experiment, 50% lethal dose (LD50); settings: in vivo, ip; intraperitoneally injected

SMILES	Ki (α-receptor)	IC50 (Rat thoracic aorta)	number of platelets in blood (LPS-induced DIC and MOF)	prothrombin time (PT) (LPS-induced DIC and MOF)	activated partial thromboplastin time (aPTT) (LPS-induced DIC and MOF)	fibrinogen level in blood (LPS-induced DIC and MOF)	FDP level in blood (LPS-induced DIC and MOF)	S-GOT level in blood (LPS-induced DIC and MOF)	S-GPT level in blood (LPS-induced DIC and MOF)	BUN level in blood (LPS-induced DIC and MOF)	Concentration of Nitrite ([1]; compound 1 μM + LPS + IFN-γ)	Concentration of Nitrite ([1]; compound 10 μM + LPS + IFN-γ)	Concentration of Nitrite ([1]; compound 100 μM + LPS + IFN-γ)	LD50 [2]
Oc1ccc(CC2NCCc3cc(O)c(O)cc32)cc1 (centres unmarked) [Higenamine, reference compound]	1.26e-06 M	1020 nM	increased	shortened	shortened	increased	decreased	reduction	reduction	reduction	–	–	–	–
Oc1cc2c(cc1O)C(Cc1ccc3ccccc3c1)NCC2 (stereo not drawn) [Compound 2, 1-β-naphthylmethyl-6,7-dihydroxy-1,2,3,4-tetrahydroisoquinoline]	1.5e-07 M	2810 nM	increased	shortened	shortened	increased	decreased	reduction	reduction	reduction	34 ± 3.1 µM	22 ± 2.8 µM	11 ± 2.0 µM	439 mg/kg
Oc1cc2c(cc1O)C(Cc1cccc3ccccc13)NCC2 (stereo not drawn) [Compound 1, 1-α-naphthylmethyl-6,7-dihydroxy-1,2,3,4-tetrahydroisoquinoline]	2.7e-07 M	2750 nM	increased	shortened	shortened	increased	decreased	reduction	reduction	reduction	30 ± 2.9 µM	25 ± 3.4 µM	9 ± 3.0 µM	290 mg/kg
